This note sets out measurements from patent US9718790B2, “Triazine derivative and pharmaceutical composition having an analgesic activity comprising the same” (SHIONOGI & CO., LTD., priority 2010, dated 2017).

This assay addresses human P2X3 receptor (Homo sapiens (Human), UniProt P56373). Put plainly: Evaluation of human P2X3 receptor inhibitory activity (Fluo-3 calcium fluorescence, FDSS 3000, ATP stimulation).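 Further: stimulus was 50 nM ATP with fluorescence followed for 3 min, and the response per well was peak post-ATP fluorescence divided by the reading at measurement start.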 The assay is classed as cell-based. The conditions noted are these: C6BU-1 cells stably expressing human P2X3 receptor.

What is called IC50 is the concentration that inhibits the measured activity by half.

human P2X3 receptor, sequence (P56373 whole entry): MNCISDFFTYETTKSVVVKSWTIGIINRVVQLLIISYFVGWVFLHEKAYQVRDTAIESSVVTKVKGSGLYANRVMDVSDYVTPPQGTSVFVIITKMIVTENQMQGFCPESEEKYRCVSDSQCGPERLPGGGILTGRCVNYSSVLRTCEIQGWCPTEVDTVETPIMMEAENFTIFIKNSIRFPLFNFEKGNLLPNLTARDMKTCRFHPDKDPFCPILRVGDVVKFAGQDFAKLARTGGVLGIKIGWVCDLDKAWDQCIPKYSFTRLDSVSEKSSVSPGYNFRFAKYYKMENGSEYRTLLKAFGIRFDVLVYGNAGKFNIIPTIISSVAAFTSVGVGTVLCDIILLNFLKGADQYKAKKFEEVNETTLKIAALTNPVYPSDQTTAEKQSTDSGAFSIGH

Regarding `COC(=O)[C@@H](C)[C@@H](C)n1c(=O)[nH]/c(=N\c2ccc(Oc3ccc(C)nc3)cc2)n(Cc2ccc(Cl)cc2)c1=O` [Compound I-1376], the IC50 came to 15 nM. Take `COC(=O)[C@H](C)[C@H](C)n1c(=O)[nH]/c(=N\c2ccc(Oc3cccnc3)cc2)n(Cc2ccc(Cl)cc2)c1=O` [Compound I-1377]: the IC50 was determined as 7 nM. The figure for `COC(=O)[C@H](C)[C@H](C)n1c(=O)[nH]/c(=N\c2ccc(OC3CCC3)cc2)n(Cc2ccc(Cl)cc2)c1=O` [Compound I-1378] is 12 nM; for `COC(=O)[C@H](C)[C@H](C)n1c(=O)[nH]/c(=N\c2ccc(OC3CCC3)cc2)n(Cc2ccc(C)cc2)c1=O` [Compound I-1379] it is 10 nM; for `COC(=O)[C@H](C)[C@H](C)n1c(=O)[nH]/c(=N\c2ccc(N3CCCCC3)cc2)n(Cc2ccc(Cl)cc2)c1=O` [Compound I-1380] it is 26 nM.

For the compound `COC(=O)[C@H](C)[C@H](C)n1c(=O)[nH]/c(=N\c2ccc(N3CCCCC3)cc2)n(Cc2ccc(C)cc2)c1=O` [Compound I-1381], the IC50 was 20 nM. With `CCc1nc2ccc(/N=c3\[nH]c(=O)n(C[C@H](C)C(=O)O)c(=O)n3Cc3ccc(Cl)cc3)cc2o1` [Compound I-1382] the figure was 257 nM. Regarding `CC(C)COc1ccc(/N=c2\[nH]c(=O)n([C@@H](C)[C@@H](C)C(=O)O)c(=O)n2Cc2ccc(Cl)cc2)cc1` [Compound I-1386], the IC50 stood at 28 nM. With `Cc1ccc(Cn2c(=O)n([C@@H](C)[C@@H](C)C(=O)O)c(=O)[nH]/c2=N\c2ccc(OCC(C)C)cc2)cc1` [Compound I-1387] the figure was 44 nM; with `Cc1ccc(Oc2ccc(/N=c3\[nH]c(=O)n([C@@H](C)[C@@H](C)C(=O)O)c(=O)n3Cc3ccc(Cl)cc3)cc2)cn1` [Compound I-1388], 9 nM; with `Cc1ccc(Oc2ccc(/N=c3\[nH]c(=O)n([C@H](C)[C@H](C)C(=O)O)c(=O)n3Cc3ccc(Cl)cc3)cc2)cn1` [Compound I-1389], 12 nM. As to `C[C@@H](C(=O)O)[C@H](C)n1c(=O)[nH]/c(=N\c2ccc(Oc3cccnc3)cc2)n(Cc2ccc(Cl)cc2)c1=O` [Compound I-1390], the IC50 was determined as 15 nM.

Consider `C[C@@H](C(=O)O)[C@H](C)n1c(=O)[nH]/c(=N\c2ccc(OC3CCC3)cc2)n(Cc2ccc(Cl)cc2)c1=O` [Compound I-1391], for which the IC50 was determined as 16 nM. The figure for `Cc1ccc(Cn2c(=O)n([C@@H](C)[C@@H](C)C(=O)O)c(=O)[nH]/c2=N\c2ccc(OC3CCC3)cc2)cc1` [Compound I-1392] is 18 nM. For the compound `C[C@@H](C(=O)O)[C@H](C)n1c(=O)[nH]/c(=N\c2ccc(N3CCCCC3)cc2)n(Cc2ccc(Cl)cc2)c1=O` [Compound I-1393], the IC50 turned out to be 35 nM. The figure for `Cc1ccc(Cn2c(=O)n([C@@H](C)[C@@H](C)C(=O)O)c(=O)[nH]/c2=N\c2ccc(N3CCCCC3)cc2)cc1` [Compound I-1394] is 44 nM; for `Cc1ccc(Cn2c(=O)n(CCCC(=O)O)c(=O)[nH]/c2=N\c2ccc(Oc3ccc(C)nc3)cc2)cc1` [Compound I-1395] it is 23 nM; for `COC(=O)CCCn1c(=O)[nH]/c(=N\c2ccc(Oc3ccnc(C)c3)cc2)n(Cc2ccc(Cl)cc2)c1=O` [Compound I-1396] it is 4 nM. The figure for `CCOC(=O)CCCn1c(=O)[nH]/c(=N\c2ccc(Oc3ccnc(C)c3)cc2)n(Cc2ccc(C)cc2)c1=O` [Compound I-1397] is 3 nM; for `COC(=O)[C@@H](C)Cn1c(=O)[nH]/c(=N\c2cnc(OC3CCC3)c(Cl)c2)n(Cc2ccc(C)cc2)c1=O` [Compound I-1398] it is 25 nM. With `COC(=O)[C@@H](C)Cn1c(=O)[nH]/c(=N\c2cnc(OC3CCC3)c(Cl)c2)n(Cc2ccc(Cl)cc2)c1=O` [Compound I-1399] the figure was 50 nM.

Turning to `CCOC(=O)CCn1c(=O)[nH]/c(=N\c2ccc(OC3CCC3)c(C)c2)n(Cc2ccc(C)cc2)c1=O` [Compound I-1400], the IC50 turned out to be 13 nM. With `CCOC(=O)CCn1c(=O)[nH]/c(=N\c2ccc(OC3CCC3)c(C)c2)n(Cc2ccc(Cl)cc2)c1=O` [Compound I-1401] the figure was 22 nM. Consider `COC(=O)[C@H](C)[C@H](C)n1c(=O)[nH]/c(=N\c2ccc(OC3CCC3)c(C)c2)n(Cc2ccc(C)cc2)c1=O` [Compound I-1402], for which the IC50 was 33 nM. The figure for `COC(=O)[C@H](C)[C@H](C)n1c(=O)[nH]/c(=N\c2ccc(OC3CCC3)c(C)c2)n(Cc2ccc(Cl)cc2)c1=O` [Compound I-1403] is 50 nM; for `Cc1cc(Oc2ccc(/N=c3\[nH]c(=O)n(CCCC(=O)O)c(=O)n3Cc3ccc(Cl)cc3)cc2)ccn1` [Compound I-1404] it is 24 nM. Regarding `Cc1ccc(Cn2c(=O)n(CCCC(=O)O)c(=O)[nH]/c2=N\c2ccc(Oc3ccnc(C)c3)cc2)cc1` [Compound I-1405], the IC50 was found to be 26 nM. The figure for `Cc1ccc(Cn2c(=O)n(CCC(=O)O)c(=O)[nH]/c2=N\c2ccc(OC3CCC3)c(C)c2)cc1` [Compound I-1406] is 64 nM; for `Cc1cc(/N=c2\[nH]c(=O)n(CCC(=O)O)c(=O)n2Cc2ccc(Cl)cc2)ccc1OC1CCC1` [Compound I-1407] it is 36 nM.

Turning to `Cc1ccc(Cn2c(=O)n([C@@H](C)[C@@H](C)C(=O)O)c(=O)[nH]/c2=N\c2ccc(OC3CCC3)c(C)c2)cc1` [Compound I-1408], the IC50 was 16 nM.

Turning to `Cc1cc(/N=c2\[nH]c(=O)n([C@@H](C)[C@@H](C)C(=O)O)c(=O)n2Cc2ccc(Cl)cc2)ccc1OC1CCC1` [Compound I-1409], the IC50 was found to be 17 nM. With `Cc1ccc(Cn2c(=O)n(C[C@H](C)C(=O)O)c(=O)[nH]/c2=N\c2cnc(OC3CCC3)c(Cl)c2)cc1` [Compound I-1410] the figure was 56 nM; with `C[C@@H](Cn1c(=O)[nH]/c(=N\c2cnc(OC3CCC3)c(Cl)c2)n(Cc2ccc(Cl)cc2)c1=O)C(=O)O` [Compound I-1411], 58 nM; with `O=C(O)CCn1c(=O)[nH]/c(=N\c2ccc(Oc3cncc(F)c3)cc2)n(Cc2ccc(Cl)cc2)c1=O` [Compound I-1412], 11 nM. For the compound `Cc1ccc(Oc2ccc(/N=c3\[nH]c(=O)n(CCC(=O)O)c(=O)n3Cc3ccc(Cl)cc3)cc2)c(C)n1` [Compound I-1413], the IC50 was 72 nM.

As for `CC(C)NC(=O)c1ccc(/N=c2\[nH]c(=O)n(C[C@H](C)C(=O)O)c(=O)n2Cc2ccc(Cl)cc2)cc1Cl` [Compound I-1414], the IC50 was found to be 986 nM. The figure for `COC(=O)[C@@H](C)Cn1c(=O)[nH]/c(=N\c2ccc(NC(C)=O)cc2)n(Cc2ccc(C)cc2)c1=O` [Compound I-1415] is 532 nM. With `COC(=O)[C@@H](C)Cn1c(=O)[nH]/c(=N\c2ccc(NS(C)(=O)=O)cc2)n(Cc2ccc(C)cc2)c1=O` [Compound I-1416] the figure was 141 nM. `Cc1ccc(Cn2c(=O)n(C[C@H](C)C(=O)O)c(=O)[nH]/c2=N\c2ccc(NS(C)(=O)=O)cc2)cc1` [Compound I-1417]: the IC50 was found to be 207 nM.

As for `COC(=O)[C@@H](C)Cn1c(=O)[nH]/c(=N\c2ccc(NC(=O)C(C)C)c(Cl)c2)n(Cc2ccc(C)cc2)c1=O` [Compound I-1419], the IC50 is 304 nM. With `Cc1ccc(Cn2c(=O)n(C[C@H](C)C(=O)O)c(=O)[nH]/c2=N\c2ccc(NC(=O)C(C)C)c(Cl)c2)cc1` [Compound I-1420] the figure was 607 nM. The figure for `CCOC(=O)CCn1c(=O)[nH]/c(=N\c2ccc(OC(C)C)c(COC)c2)n(Cc2ccc(C)cc2)c1=O` [Compound I-1421] is 883 nM; for `COCc1cc(/N=c2\[nH]c(=O)n(CC(C)(C)C(=O)OC)c(=O)n2Cc2ccc(Cl)cc2)ccc1OC(C)C` [Compound I-1422] it is 529 nM; for `COC(=O)C(C)(C)Cn1c(=O)[nH]/c(=N\c2ccc(OC(C)C)c(CO)c2)n(Cc2ccc(Cl)cc2)c1=O` [Compound I-1423] it is 41 nM. As to `CCOC(=O)CCn1c(=O)[nH]/c(=N\c2ccc(OC(C)C)c(CO)c2)n(Cc2ccc(C)cc2)c1=O` [Compound I-1424], the IC50 came out at 35 nM. Regarding `CCOC(=O)CCn1c(=O)[nH]/c(=N\c2ccc(OC(C)C)c(COC(C)=O)c2)n(Cc2ccc(C)cc2)c1=O` [Compound I-1425], the IC50 came out at 50 nM. The figure for `CCOC(=O)CCn1c(=O)[nH]/c(=N\c2ccc(CC(C)C)c(Cl)c2)n(Cc2ccc(C)cc2)c1=O` [Compound I-1426] is 50 nM; for `Cc1ccc(Cn2c(=O)n(CCC(=O)O)c(=O)[nH]/c2=N\c2ccc(CC(C)C)c(Cl)c2)cc1` [Compound I-1427] it is 8 nM; for `COCc1cc(/N=c2\[nH]c(=O)n(CCC(=O)O)c(=O)n2Cc2ccc(C)cc2)ccc1OC(C)C` [Compound I-1428] it is 926 nM. With `Cc1ccc(Cn2c(=O)n(CCC(=O)O)c(=O)[nH]/c2=N\c2ccc(OC(C)C)c(CO)c2)cc1` [Compound I-1429] the figure was 232 nM; with `COCc1cc(/N=c2\[nH]c(=O)n(CC(C)(C)C(=O)O)c(=O)n2Cc2ccc(Cl)cc2)ccc1OC(C)C` [Compound I-1430], 709 nM.

In the case of `CC(C)Oc1ccc(/N=c2\[nH]c(=O)n(CC(C)(C)C(=O)O)c(=O)n2Cc2ccc(Cl)cc2)cc1CO` [Compound I-1431], the IC50 is 242 nM.

As for `COC(=O)[C@@H](C)Cn1c(=O)[nH]/c(=N\c2ccc(Oc3ccnc(O)c3)cc2)n(Cc2ccc(C)cc2)c1=O` [Compound I-1432], the IC50 amounted to 2 nM. The figure for `CCOC(=O)CCn1c(=O)[nH]/c(=N\c2ccc(Oc3ccnc(O)c3)cc2)n(Cc2ccc(Cl)cc2)c1=O` [Compound I-1434] is 2 nM; for `COC(=O)[C@H](C)[C@H](C)n1c(=O)[nH]/c(=N\c2ccc(CC(C)C)c(Cl)c2)n(Cc2ccc(Cl)cc2)c1=O` [Compound I-1435] it is 61 nM.

On to `COC(=O)[C@H](C)[C@H](C)n1c(=O)[nH]/c(=N\c2ccc(CC(C)C)c(Cl)c2)n(Cc2ccc(C)cc2)c1=O` [Compound I-1436], for which the IC50 was determined as 54 nM. The figure for `COC(=O)[C@@H](C)[C@@H](C)n1c(=O)[nH]/c(=N\c2ccc(CC(C)C)c(Cl)c2)n(Cc2ccc(Cl)cc2)c1=O` [Compound I-1438] is 63 nM; for `COC(=O)[C@@H](C)[C@@H](C)n1c(=O)[nH]/c(=N\c2ccc(CC(C)C)c(Cl)c2)n(Cc2ccc(C)cc2)c1=O` [Compound I-1439] it is 39 nM.
